Assay results published in patent US6596754B1, “Preventives/remedies for multiple organ failure” (Daiichi Pharmaceuticals Co., Ltd., priority 1998, dated 2003).

What was measured:
Assay type in all cases: in vivo, Rats (Slc: Wistar)
[1] = system: liver function parameters (GOT, GPT, LDH, and T-BIL); assay: Liver disease: liver function parameters (GOT, GPT, LDH, T-BIL) after LPS administration; conditions: six hours after LPS; for TBIL / GOT / GPT / LDH: rats, LPS 20 mg/kg i.v., Mean ± S.E. (n = 7); for TBIL: control 0.46 ± 0.15; for GOT: control 3404 ± 406; for GPT: control 3716 ± 496; for LDH: control 23847 ± 3225
Protocol: Rats (Slc: Wistar, male, 10 weeks old, n=7) were anesthetized by halothane. Subsequently, LPS (E. coli, 055: B5) (20 mg/2 ml/kg) was administered to each rat through the femoral vein. Immediately after administration, compound A was subcutaneously administered to each rat at a dose of 0.3, 1, or 3 mg/kg. Six hours after LPS administration, blood was collected from the abdominal aorta in the presence of citric acid, and the blood was collected to measurement of liver function parameters (GOT, GPT, LDH, and T-BIL).

IL-6 = assay: Hypercytokinemia: plasma IL-6 by ELISA after LPS administration; conditions: rats, LPS 20 mg/kg i.v.; 1 or 3 mg/kg s.c.; six hours after LPS; FIG. 1; #p <0.1
Protocol: Rats (Slc: Wistar, male, 10 weeks old, n=7) were anesthetized by halothane. Subsequently, LPS (E. coli, 055: B5) (20 mg/2 ml/kg) was administered to each rat through the femoral vein. Immediately after administration, compound A was subcutaneously administered to each rats at a dose of 1 or 3 mg/kg. Six hours after administration of LPS, blood was collected from the abdominal aorta in the presence of citric acid, and plasma IL-6 was measured by ELISA.

[2] = system: LPS intravenous administration shock model; assay: LPS intravenous administration shock model, mortality; conditions: for Mortality in terms of percentage(%) / Mortality: rats, LPS 20 mg/kg i.v., 24 hours after LPS; for Mortality in terms of percentage(%): control 100%; for Mortality: dead/total
Protocol: Rats (Slc: Wistar, male, 10 weeks old, n=15) were anesthetized by halothane. Subsequently, lipopolysaccharide (LPS) (E. coli, 055: B5) (20 mg/2 ml/kg) was administered to each rat through the femoral vein. Immediately after administration, (2S)-2-[4-([(3S)-1-acetimidoyl-3-pyrrolidinyl]oxy)phenyl]-3-(7-amidino-2-naphthyl)propionic acid hydrochloride pentahydrate (hereinafter referred to as “Compound A”) was subcutaneously administered to each rat at a dose of 0.3, 1, or 3 mg/kg. The mortality for the rats was observed 24 hours after the administration of LPS.

For `CC(=N)N1CC[C@H](Oc2ccc([C@H](Cc3ccc4ccc(C(=N)N)cc4c3)C(=O)O)cc2)C1.Cl.O.O.O.O.O` [Compound A, (2S)-2-[4-([(3S)-1-acetimidoyl-3-pyrrolidinyl]oxy)phenyl]-3-(7-amidino-2-naphthyl)propionic acid hydrochloride pentahydrate], the “Effect on liver function parameters (in words)” value ([1]; 0.3, 1, 3 mg/kg s.c.) was “dose-dependently suppressed the increase in each liver function parameter”, the TBIL ([1]; 0.3 mg/kg s.c.) was 0.48 ± 0.22 mg/dL and the GOT ([1]; 0.3 mg/kg s.c.) was 1939 ± 442 IU/L. It also gave a GPT ([1]; 0.3 mg/kg s.c.) of 1986 ± 467 IU/L, an LDH ([1]; 0.3 mg/kg s.c.) of 11560 ± 2983 IU/L and a TBIL ([1]; 1 mg/kg s.c.) of 0.20 ± 0.10 mg/dL. The GOT ([1]; 1 mg/kg s.c.) was 1183 ± 281 IU/L, the GPT ([1]; 1 mg/kg s.c.) was 1216 ± 352 IU/L and the LDH ([1]; 1 mg/kg s.c.) was 6297 ± 2291 IU/L. It also gave a TBIL ([1]; 3 mg/kg s.c.) of 0.10 ± 0.01 mg/dL, a GOT ([1]; 3 mg/kg s.c.) of 364 ± 42 IU/L and a GPT ([1]; 3 mg/kg s.c.) of 189 ± 22 IU/L. The LDH ([1]; 3 mg/kg s.c.) was 972 ± 186 IU/L, the “Concentration of plasma IL-6 (in words)” value (IL-6) was “dose-dependently suppressed the increase in concentration of IL-6” and the “Effect on mortality for rats (in words)” value ([2]; 0.3, 1, 3 mg/kg s.c., χ2 test p<0.001) was “dose-dependently decreases the mortality for rats”. For the same compound, the “Mortality in terms of percentage(%)” value ([2]; 0.3 mg/kg s.c.) was 80%, the Mortality ([2]; 0.3 mg/kg s.c.) was 12/15 and the “Mortality in terms of percentage(%)” value ([2]; 1 mg/kg s.c.) was 40%. For the same compound, the Mortality ([2]; 1 mg/kg s.c.) was 6/15, the “Mortality in terms of percentage(%)” value ([2]; 3 mg/kg s.c.) was 7% and the Mortality ([2]; 3 mg/kg s.c.) was 1/15.
